Laboratory results reported in patent publication US20130149269A1, “NOVEL MALODOR COUNTERACTANT” (priority 2011, published 2013).

Tests used:
[1] = Smoke malodor counteracting test, trained sensory panel (LMS rating); details: for Malodor Intensity / % MOR: smoke malodor; for Malodor Intensity: mean LMS 0-100, 24 hours equilibration; for % MOR: relative to Malodor Alone
Description: (§1) Establishment of Malodor Models: A number of malodorous chemicals have been identified, which are associated with different types of malodors. Commercial samples of these chemicals (commercially available at Sigma-Aldrich Inc.) were thus used in the present invention as malodorous model compounds to assess the effectiveness of methyl 3-methyl cyclohexane carboxylate in counteracting malodors.
(§2) A model of bathroom malodor was established using a solution of isovaleric acid (“IVA”) in diethyl phthalate (“DEP”) (10% by weight). A model of sweat malodor was established using a solution of 3-methyl-2-hexanoic acid in DEP (5% by weight). A model of mold/mildew malodors was established using a solution of 2-ethyl-1-hexanol in DEP (20% by weight). A model of smoke malodor was established by applying a solution of 3-acetyl pyridine in DEP (5% by weight) onto a piece of cloth.
(§3) Preparation of Test Samples: Methyl 3-methyl cyclohexane carboxylate was prepared at a series of concentrations, ranging from 0.1% to 5% in DEP, with corresponding vapor phase concentrations ranging from about 4 μg to about 0.2 mg per liter of air space.
(§4) A malodor material as established above (1 g) and a solution of methyl 3-methyl cyclohexane carboxylate in DEP (1 g) were pipetted into separate aluminum weighing dishes located at the bottom of a 32 oz. jar (1 L). For negative control samples (Malodor Alone), the malodor material (0.5 g) was pipetted into each of the two dishes located at the bottom of jar. Jars were then capped and the samples were allowed to equilibrate for 24 hours before testing.
(§5) Testing Procedure: Test samples were presented in a blind and pseudorandom order to a group of trained panelists (consisting of 12-17 females with a mean age of 40 years). The panelists were instructed to take the following steps: i) sniff malodor reference jars for familiarization prior to each testing session; ii) uncap a jar; iii) place their noses at a distance of about 3-4 inches above the opening; iv) take short sniffs for about 2-3 seconds; and v) enter a rating of overall intensity and malodor intensity on a handheld computer.
(§6) The overall and malodor intensity was rated using the Labeled Magnitude Scale (LMS) [Green, et al., Chemical Senses, 21(3), June 1996, 323-334]. Mean (“Malodor Intensity”) and standard error of the mean (“SE”, ±) were obtained, where 0 represents “No Sensation” and 100 represents “The Strongest Imaginable Malodor Sensation”. Percent malodor reduction (“% MOR”) represents the perceived reduction in mean malodor intensity of the sample containing the malodor in the presence of methyl 3-methyl cyclohexane carboxylate relative to the negative control (Malodor Alone).

[2] = Mold/mildew malodor counteracting test, trained sensory panel (LMS rating); details: for Malodor Intensity / % MOR: mold/mildew malodor; for Malodor Intensity: mean LMS 0-100, 24 hours equilibration; for % MOR: relative to Malodor Alone
Description: as §1, §2, §3, §4, §5, §6

[3] = Bathroom malodor counteracting test, trained sensory panel (LMS rating); details: for Malodor Intensity / % MOR: bathroom malodor; for Malodor Intensity: mean LMS 0-100, 24 hours equilibration; for % MOR: relative to Malodor Alone
Description: as §1, §2, §3, §4, §5, §6

[4] = Sweat malodor counteracting test, trained sensory panel (LMS rating); details: for Malodor Intensity / % MOR: sweat malodor; for Malodor Intensity: mean LMS 0-100, 24 hours equilibration; for % MOR: relative to Malodor Alone
Description: as §1, §2, §3, §4, §5, §6

[5] = overall conclusion, 0.1% to 5% in DEP

## COC(=O)C1CCCC(C)C1 (stereo not drawn) [Methyl 3-Methyl Cyclohexane Carboxylate, methyl 3-methyl cyclohexane carboxylate]
[1]; [5]
  counteracting the smoke malodor (result in words): effective
[1]; 0.1% in DEP, 4 μg/L
  Malodor Intensity: 10.02
  % MOR: 51.95%
[1]; 0.5% in DEP, 21 μg/L
  Malodor Intensity: 7.23
  % MOR: 66.04%
[1]; 1% in DEP, 42 μg/L
  Malodor Intensity: 4.78
  % MOR: 77.57%
[1]; 5% in DEP, 208 μg/L
  Malodor Intensity: 4.23
  % MOR: 80.07%
[2]; 0.1% in DEP, 4 μg/L
  Malodor Intensity: 9.88
  % MOR: 40.01%
[2]; 0.5% in DEP, 21 μg/L
  Malodor Intensity: 5.44
  % MOR: 69.56%
[2]; 1% in DEP, 42 μg/L
  Malodor Intensity: 4.44
  % MOR: 76.51%
[2]; 5% in DEP, 208 μg/L
  Malodor Intensity: 3.34
  % MOR: 83.07%
[2]; [5]
  counteracting the mold/mildew malodor (result in words): effective
[3]; 0.1% in DEP, 4 μg/L
  Malodor Intensity: 8.65
  % MOR: 56.93%
[3]; 0.5% in DEP, 21 μg/L
  Malodor Intensity: 5.44
  % MOR: 66.47%
[3]; 1% in DEP, 42 μg/L
  Malodor Intensity: 2.69
  % MOR: 86.11%
[3]; 5% in DEP, 208 μg/L
  Malodor Intensity: 1.71
  % MOR: 90.86%
[3]; [5]
  counteracting the bathroom malodor (result in words): effective
[4]; [5]
  counteracting the sweat malodor (result in words): effective
[4]; 0.1% in DEP, 4 μg/L
  Malodor Intensity: 4.48
  % MOR: 77.92%
[4]; 0.5% in DEP, 21 μg/L
  Malodor Intensity: 5.12
  % MOR: 72.63%
[4]; 1% in DEP, 42 μg/L
  Malodor Intensity: 5.42
  % MOR: 73.14%
[4]; 5% in DEP, 208 μg/L
  Malodor Intensity: 3.55
  % MOR: 81.47%
